# Data from US9512107B2, “Therapeutically active compositions and their methods of use” (Agios Pharmaceuticals, Inc., priority 2012, dated 2016).
# Numbering of substitutions follows the chain as printed. Like-named read-outs stand apart in the source and are kept apart here.
# What was measured:
# IDH2 R172K = target: T1, IDH2 R172K (Homo sapiens, UniProt P48735, R172K); assay: IDH2 R172K enzymatic assay (NADPH cofactor depletion, diaphorase/resazurin readout); type: biochemical; conditions: read-out: Enz R172K
# T1 sequence (P48735 40-452 R172K): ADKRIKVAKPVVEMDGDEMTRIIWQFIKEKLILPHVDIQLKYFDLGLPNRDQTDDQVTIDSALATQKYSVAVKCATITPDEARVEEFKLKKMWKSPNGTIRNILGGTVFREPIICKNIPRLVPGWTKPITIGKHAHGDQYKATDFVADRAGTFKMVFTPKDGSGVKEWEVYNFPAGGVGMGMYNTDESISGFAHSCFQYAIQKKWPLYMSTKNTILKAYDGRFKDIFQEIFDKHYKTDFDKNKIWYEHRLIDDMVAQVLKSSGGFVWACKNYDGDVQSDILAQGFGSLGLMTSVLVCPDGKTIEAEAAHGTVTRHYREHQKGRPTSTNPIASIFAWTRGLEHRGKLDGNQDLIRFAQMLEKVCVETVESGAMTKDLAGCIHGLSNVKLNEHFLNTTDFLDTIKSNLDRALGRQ
# Method in brief: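 Residual NADPH is read out as resorufin fluorescence after quenching with 36 μg/ml diaphorase and 60 μM resazurin in stop mix. The stop follows a 1 h room-temperature reaction started by a substrate mix of NADPH (50 μM) and α-KG (6.3 mM), with compound preincubated with enzyme for 1 h beforehand.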
# IDH2 R140Q = target: T2, IDH2 R140Q (Homo sapiens, UniProt P48735, R140Q); assay: IDH2 R140Q enzymatic assay (cofactor depletion, similar format); type: biochemical; conditions: read-out: Enz R140Q
# T2 sequence (P48735 40-452 R140Q): T1 sequence (P48735 40-452 R172K) with R101Q, K133R
# [1] = tested on: U87MG pLVX-IDH2 R140Q-neo cells; assay: U87MG pLVX-IDH2 R140Q-neo cell based assay, 2-HG in media by LC-MS at 48 hours
# Method in brief: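 2-HG secreted into the medium was measured by LC-MS after 48 h of compound treatment (0.2% DMSO final) of U87MG pLVX-IDH2 R140Q-neo cells in DMEM/10% FBS. The same wells were assayed at 72 h by CellTiter-Glo luminescence for effects on growth.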
Compound,IC50 (IDH2 R172K) [µM],IC50 (IDH2 R140Q) [µM],"IC50 ([1]; Homo sapiens, U-87 MG) [µM]",IC50 [1] [µM]
"CC(C)(O)CNc1nc(Nc2cnc(F)c(Cl)c2)nc(-c2cccc(C(F)(F)F)n2)n1 [Compound 670, 1-[4-(5-Chloro-6-fluoro-pyridin-3-ylamino)-6-(6-trifluoromethyl-pyridin-2-yl)-[1,3,5]triazin-2-ylamino]-2-methyl-propan-2-ol]",0.1 to 1,0.1 to 1,< 0.1,
"CC(C)Nc1nc(Nc2ccnc(C(C)(F)F)c2)nc(-c2cccc(N)n2)n1 [Compound 696, 6-(6-aminopyridin-2-yl)-N2-(2-(1,1-difluoroethyl)pyridin-4-yl)-N4-isopropyl-1,3,5-triazine-2,4-diamine]",0.1 to 1,0.1 to 1,< 0.1,
"OC1CC1Nc1nc(Nc2ccnc(C(F)(F)F)c2)nc(-c2cccc(C(F)(F)F)n2)n1 (stereo not drawn) [Compound 569, 2-[4-(6-Trifluoromethyl-pyridin-2-yl)-6-(2-trifluoromethyl-pyridin-4-ylamino)-[1,3,5]triazin-2-ylamino]-cyclopropanol]",0.1 to 1,0.1 to 1,,0.1 to 1
